Key:
SK-BR-3 = test: Concentration needed to inhibit 50% growth of human SKBr3 (breast carcinoma) cell lines; format: functional, cell-based
A-431 = test: Concentration needed to inhibit 50% growth of the human A431 (epidermoid carcinoma) cell lines; format: functional, cell-based
SW-620 = test: Concentration needed to inhibit 50% growth of human SW620 (colon carcinoma) cell lines; format: functional, cell-based
[1] = target: Epidermal growth factor receptor and ErbB2 (HER1 and HER2) (Homo sapiens, UniProt P04626+P00533); test: Concentration needed to inhibit the autophosphorylation of the cytoplasmic domain of Epidermal growth factor receptor using DELFIA/time-resolved fluorimetry.; format: protein assay

SMILES	IC50 (SK-BR-3) [µM]	IC50 (A-431) [µM]	IC50 (SW-620) [µM]	IC50 [1] [µM]
COc1cc2ncc(C#N)c(Nc3ccc(C)c(Cl)c3)c2cc1OC	0.94	0.93	25	1.48
COc1cc2ncc(C#N)c(Nc3cccc(Cl)c3)c2cc1OC	1.76	0.59	7.06	0.18
COc1cc2ncc(C#N)c(Nc3ccccc3Br)c2cc1OC	0.8	21	17	4.18
COc1cc2ncc(C#N)c(Nc3cccc(N)c3)c2cc1OC	2.45	6.62	14.3	0.82
COc1cc2ncc(C#N)c(Nc3ccc(Br)c(C)c3)c2cc1OC	1.38	0.73	3.09	0.62
CCOc1cc2c(Nc3cccc(Br)c3)c(C#N)cnc2cc1OC	0.64	0.57	4.24	21.19
COc1cc2ncc(C#N)c(Nc3cccc(O)c3)c2cc1OC	0.95	1.52	7.8	6.36
COc1cc2ncc(C#N)c(Nc3cccc(Br)c3)c2cc1OC	0.48	0.78	3.72	–
COCOc1cc2ncc(C#N)c(Nc3cccc(Br)c3)c2cc1OCOC	14.2	14.5	9.79	6.75
N#Cc1cnc2cc3c(cc2c1Nc1cccc(Br)c1)OCCO3	0.27	0.42	0.43	> 104.7
CCOc1cc2ncc(C#N)c(Nc3cccc(Br)c3)c2cc1OC	0.06	0.14	0.06	33.02
COc1cc2ncc(C#N)c(Nc3cccc(Br)c3C)c2cc1OC	0.39	3.64	11.8	0.84
COc1cc2ncc(C#N)c(Nc3ccc(Br)cc3F)c2cc1OC.Cl	1.69	0.89	19.2	> 91.2
COc1cc2ncc(C#N)c(Nc3cccc(C(N)=O)c3)c2cc1OC	8.44	5.91	6.29	7.69
COc1cc2ncc(C#N)c(Nc3cccc(NC(C)=O)c3)c2cc1OC	1.55	2.62	2.74	69.4
COc1cc2ncc(C#N)c(Nc3ccc(F)cc3)c2cc1OC	0.74	1.43	2.87	47.94
COc1cc2ncc(CO)c(Nc3cccc(Br)c3)c2cc1OC	15.4	7.91	23.2	> 102.2

The remaining molecules from weak to strong by IC50 (SK-BR-3), led by results:

IC50 (SK-BR-3) [µM]	IC50 (A-431) [µM]	IC50 (SW-620) [µM]	IC50 [1] [µM]	SMILES
35.7	18.2	53.8	34.22	COc1cc2ncc(C(=O)O)c(Nc3cccc(Br)c3)c2cc1OC
27.7	26.1	64.5	88.29	COc1cc2c(C#N)cnc(Nc3cccc(Cl)c3)c2cc1OC
26	3.51	43.3	14.18	COc1cc2ncc(C#N)c(Nc3cccc(C#N)c3)c2cc1OC
6.74	4.35	3.8	62.32	COc1cc2ncc(C#N)c(Nc3cccc(C(C)C)c3)c2cc1OC
6.21	3.01	6.93	> 81.3	CCOC(=O)c1cnc2cc(OC)c(OC)cc2c1Nc1cccc(Br)c1
5.07	2.08	2.9	5.15	N#Cc1cnc2cc3c(cc2c1Nc1cccc(Br)c1)OCCCO3
2.97	1.95	5.24	3.37	COc1cc2ncc(C=O)c(Nc3cccc(Br)c3)c2cc1OC
2.02	3.14	3.43	3.15	COc1cc2ncc(C#N)c(Nc3cc(Cl)c(O)c(Cl)c3)c2cc1OC
1.54	1.45	4.98	0.76	COc1cc2ncc(C#N)c(Nc3cccc(SC)c3)c2cc1OC.Cl
1.29	3.01	2.75	9.04	COc1cc2ncc(C#N)c(Nc3ccc(O)c(Cl)c3)c2cc1OC
0.55	0.75	2.89	1.79	COc1cc2ncc(C#N)c(Nc3ccc(C)c(Br)c3)c2cc1OC
0.54	0.818	5.34	13.85	COc1cc2ncc(C#N)c(Nc3ccc(Cl)cc3F)c2cc1OC
0.49	0.27	0.49	0.98	CCOc1cc2ncc(C#N)c(Nc3ccc(F)c(Cl)c3)c2cc1OCC
0.09	0.11	0.16	0.42	CCOc1cc2ncc(C#N)c(Nc3cccc(Br)c3)c2cc1OCC

Reference: ChEMBL document CHEMBL1133627, “4-Anilino-6,7-dialkoxyquinoline-3-carbonitrile inhibitors of epidermal growth factor receptor kinase and their bioisosteric relationship to the 4-anilino-6,7-dialkoxyquinazoline inhibitors” (J Med Chem, 2000)
